Test results: publication PMC9021566, “Design, Synthesis, and Antitumor Activity Study of All-Hydrocarbon-Stapled B1-Leu Peptides” (Frontiers in Chemistry, 2022)
Read-outs that look alike come from different tables or passages of the source.

Legend:
[1] = the molecule shown is the open-chain precursor, resin
[2] = On-resin ring-closing olefin metathesis (all-hydrocarbon stapling, S5/S5 i,i+4 or R8/S5 i,i+7), first-generation Grubbs catalyst (3 equiv); then Fmoc removal, TFA cleavage, RP-HPLC; conditions: the molecule shown is the open-chain precursor, 25.0 °C, 4.0 h

With `C=CCCCCCC[C@@](C)(NC(=O)[C@H](Cc1ccccc1)NC(=O)[C@H](CCCNC(=N)NS(=O)(=O)c1c(C)c(C)c2c(c1C)CC(C)(C)O2)NC(=O)[C@H](CCCCNC(=O)OC(C)(C)C)NC(=O)[C@@H](NC(=O)OCC1c2ccccc2-c2ccccc21)C(C)C)C(=O)N[C@@H](CCCCNC(=O)OC(C)(C)C)C(=O)N[C@@H](Cc1ccccc1)C(=O)N[C@@H](Cc1ccccc1)C(=O)N[C@@H](CCCNC(=N)NS(=O)(=O)c1c(C)c(C)c2c(c1C)CC(C)(C)O2)C(=O)N[C@@H](CCCCNC(=O)OC(C)(C)C)C(=O)N[C@@H](CC(C)C)C(=O)N[C@@](C)(CCCC=C)C(=O)N[C@@H](CCCCNC(=O)OC(C)(C)C)C(=O)N[C@@H](CC(C)C)C(=O)N[C@H](C(N)=O)C(C)C` the ring closure, overall yield ([1]; 33-membered ring) was 65%.
For `C=CCCCCCC[C@@](C)(NC(=O)[C@@H](NC(=O)OCC1c2ccccc2-c2ccccc21)C(C)C)C(=O)N[C@@H](CCCNC(=N)NS(=O)(=O)c1c(C)c(C)c2c(c1C)CC(C)(C)O2)C(=O)N[C@@H](Cc1ccccc1)C(=O)N[C@@H](CCCCNC(=O)OC(C)(C)C)C(=O)N[C@@H](CCCCNC(=O)OC(C)(C)C)C(=O)N[C@@H](Cc1ccccc1)C(=O)N[C@@H](Cc1ccccc1)C(=O)N[C@@](C)(CCCC=C)C(=O)N[C@@H](CCCCNC(=O)OC(C)(C)C)C(=O)N[C@@H](CC(C)C)C(=O)N[C@@H](CCCCNC(=O)OC(C)(C)C)C(=O)N[C@@H](CCCCNC(=O)OC(C)(C)C)C(=O)N[C@@H](CC(C)C)C(=O)N[C@H](C(N)=O)C(C)C`, the ring closure, overall yield ([2]; 33-membered ring, 1,2-dichloroethane (dry)) was 62%.
Work on `C=CCCC[C@](C)(NC(=O)[C@H](CCCCNC(=O)OC(C)(C)C)NC(=O)[C@H](Cc1ccccc1)NC(=O)[C@H](CCCNC(=N)NS(=O)(=O)c1c(C)c(C)c2c(c1C)CC(C)(C)O2)NC(=O)[C@](C)(CCCC=C)NC(=O)[C@@H](NC(=O)OCC1c2ccccc2-c2ccccc21)C(C)C)C(=O)N[C@@H](Cc1ccccc1)C(=O)N[C@@H](Cc1ccccc1)C(=O)N[C@@H](CCCNC(=N)NS(=O)(=O)c1c(C)c(C)c2c(c1C)CC(C)(C)O2)C(=O)N[C@@H](CCCCNC(=O)OC(C)(C)C)C(=O)N[C@@H](CC(C)C)C(=O)N[C@@H](CCCCNC(=O)OC(C)(C)C)C(=O)N[C@@H](CCCCNC(=O)OC(C)(C)C)C(=O)N[C@@H](CC(C)C)C(=O)N[C@H](C(N)=O)C(C)C` yielded a ring closure, overall yield ([1]; 21-membered ring) of 65%.
For `C=CCCC[C@](C)(NC(=O)[C@H](CCCNC(=N)NS(=O)(=O)c1c(C)c(C)c2c(c1C)CC(C)(C)O2)NC(=O)[C@H](Cc1ccccc1)NC(=O)[C@H](Cc1ccccc1)NC(=O)[C@](C)(CCCC=C)NC(=O)[C@H](CCCCNC(=O)OC(C)(C)C)NC(=O)[C@H](Cc1ccccc1)NC(=O)[C@H](CCCNC(=N)NS(=O)(=O)c1c(C)c(C)c2c(c1C)CC(C)(C)O2)NC(=O)[C@H](CCCCNC(=O)OC(C)(C)C)NC(=O)[C@@H](NC(=O)OCC1c2ccccc2-c2ccccc21)C(C)C)C(=O)N[C@@H](CC(C)C)C(=O)N[C@@H](CCCCNC(=O)OC(C)(C)C)C(=O)N[C@@H](CCCCNC(=O)OC(C)(C)C)C(=O)N[C@@H](CC(C)C)C(=O)N[C@H](C(N)=O)C(C)C`, the ring closure, overall yield ([2]; 21-membered ring, 1,2-dichloroethane (dry)) was 66%.
